Reference: ChEMBL document CHEMBL1121576, “Congeners of the alpha conformer of dopamine derived from octahydrobenz[h]isoquinoline” (1980)

Columns and labels:
Assay type in all cases: functional
Felis catus [1] = experiment: Percent reduction in blood pressure after iv administration of 1 umol/kg of compound in anesthetized cat
Felis catus [2] = experiment: Percent reduction in heart rate after iv administration of 1 umol/kg of compound in anesthetized cats.
Felis catus [3] = species: Felis catus; experiment: Tested for inhibitory activity against postganglionic cardioaccelerator nerve relative to apomorphine
Felis catus [4] = species: Felis catus; experiment: Tested for inhibition of postganglionic cardioaccelerator nerve in the cat; conditions: for ED50: Felis catus, read-out: ID50 (the source's name)

| Compound | Reduction (Felis catus [1]) | Reduction (Felis catus [2]) | Relative activity (Felis catus [3]) | ED50 (Felis catus [4]) | ID50 (Felis catus [4]) |
| --- | --- | --- | --- | --- | --- |
| Br.CCN1CC[C@H]2CCc3cc(O)c(O)cc3[C@H]2C1 | 18.5% | 4.3 beats min-1 | 0.025 | 0.81 µmol/kg |  |
| Br.CCCN1CC[C@H]2CCc3cc(O)c(O)cc3[C@@H]2C1 (relative stereo) | 13.3% | 3 beats min-1 | 0.026 | 0.8 µmol/kg |  |
| Br.CCCN1CC[C@H]2CCc3cc(O)c(O)cc3[C@H]2C1 (relative stereo) | 31.7% | 22.6 beats min-1 | 0.02 | 0.9 µmol/kg |  |
| Br.Oc1cc2c(cc1O)C1CNCCC1CC2 (stereo in doubt; 21) | 27.9% | 13.6 beats min-1 | 0.073 |  | 0.31 µM/kg |
| Br.CN1CCC2CCc3cc(O)c(O)cc3C2C1 (trans isomer) | 14.6% | 3.2 beats min-1 | 0.038 | 0.52 µmol/kg |  |
| Br.Oc1cc2c(cc1O)C1CNCCC1CC2 (trans isomer) | 21.9% | 49 beats min-1 | 0.27 |  | 0.8 µM/kg |
| CN1CCc2cccc3c2[C@H]1Cc1ccc(O)c(O)c1-3 [APOMORPHINE] |  |  | 1 | 0.024 µmol/kg |  |
